Measured values as given in ChEMBL document CHEMBL1201862, “PubChem BioAssay data set” (2004).
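Test compounds were applied to cells in 96-well plates for 48 hours at 5 doses. GI50 = concentration required for 50% inhibition of growth.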 Active and inactive are the calls of the source. Rule as the data show it: active = GI50 up to about 1.1 µM and inactive = higher. Non-standard residues stand in square brackets, D forms with d. Residues, ends and D or L forms follow the SMILES beside them.

Experiments:
Assay in all cases: DTP human tumour cell line panel, 48 h
U-251 = system: U-251
NCI-H460 = system: NCI-H460
RPMI-8226 = system: RPMI-8226
SN12C = system: SN12C
UO-31 = system: UO-31
MCF7 = system: MCF7
COLO 205 = system: COLO 205
SW-620 = system: SW-620
NCI-H23 = system: NCI-H23
EKVX = system: EKVX
SNB-19 = system: SNB-19
OVCAR-8 = system: OVCAR-8
LOX IMVI = system: LOX IMVI
OVCAR-4 = system: OVCAR-4
SNB-75 = system: SNB-75
A549 = system: A549
HL-60 = system: HL-60
OVCAR-3 = system: OVCAR-3
CCRF-CEM = system: CCRF-CEM
SF-268 = system: SF-268

| Structure (SMILES) | GI50 (U-251) | GI50 (NCI-H460) | GI50 (RPMI-8226) | GI50 (SN12C) | GI50 (UO-31) | GI50 (MCF7) | GI50 (COLO 205) | GI50 (SW-620) | GI50 (NCI-H23) | GI50 (EKVX) | GI50 (SNB-19) | GI50 (OVCAR-8) | GI50 (LOX IMVI) | GI50 (OVCAR-4) | GI50 (SNB-75) | GI50 (A549) | GI50 (HL-60) | GI50 (OVCAR-3) | GI50 (CCRF-CEM) | GI50 (SF-268) |
| --- | --- | --- | --- | --- | --- | --- | --- | --- | --- | --- | --- | --- | --- | --- | --- | --- | --- | --- | --- | --- |
| c1csc(C(NC2=NCCO2)C2CC2)c1 (stereo unspecified) | > 100 µM (inactive) | > 100 µM (inactive) | > 100 µM (inactive) | > 100 µM (inactive) | > 100 µM (inactive) | > 100 µM (inactive) | > 100 µM (inactive) | > 100 µM (inactive) | > 100 µM (inactive) | > 100 µM (inactive) | > 100 µM (inactive) | > 100 µM (inactive) | > 100 µM (inactive) | > 100 µM (inactive) | > 100 µM (inactive) | > 100 µM (inactive) | – | – | – | – |
| CN(C)c1nc(N(C)C)nc(N(C)CN(C)c2ccc(Cl)cc2)n1 | > 100 µM (inactive) | > 100 µM (inactive) | – | > 100 µM (inactive) | > 100 µM (inactive) | – | – | > 100 µM (inactive) | > 100 µM (inactive) | – | > 100 µM (inactive) | > 100 µM (inactive) | > 100 µM (inactive) | > 100 µM (inactive) | > 100 µM (inactive) | > 100 µM (inactive) | 1.72 µM (inactive) | 39 µM (inactive) | > 100 µM (inactive) | > 100 µM (inactive) |
| CN(C)CCNc1c2ccccc2c2c3c(cccc13)C(=O)N(CCN(C)C)C2=O | 0.121 µM (active) | 0.0448 µM (active) | 0.288 µM (active) | 0.0883 µM (active) | 1.61 µM (inactive) | 0.0416 µM (active) | 0.0755 µM (active) | 0.0532 µM (active) | 0.0904 µM (active) | 0.332 µM (active) | 0.28 µM (active) | 0.129 µM (active) | 0.071 µM (active) | 0.0455 µM (active) | 0.176 µM (active) | 0.193 µM (active) | 0.229 µM (active) | 0.112 µM (active) | 0.111 µM (active) | 0.22 µM (active) |
| COc1cc2c3c(c4cc(OC)c(OC)cc4c2cc1OC)C(=O)C1CCC(=O)N1C3 (stereo unspecified) | 26.3 µM (inactive) | 13.8 µM (inactive) | 2.02 µM (inactive) | – | – | 11.9 µM (inactive) | 24.5 µM (inactive) | 15.5 µM (inactive) | 55 µM (inactive) | – | – | 27.2 µM (inactive) | 24.9 µM (inactive) | 12.8 µM (inactive) | 11.6 µM (inactive) | – | 41.3 µM (inactive) | 20.6 µM (inactive) | 6.64 µM (inactive) | 22.2 µM (inactive) |
| CC(=O)NCCC1CN(C(=O)/C=C\C#C[Si](C)(C)C)c2ccccc21 (stereo unspecified) | > 10 µM (inactive) | 28.8 µM (inactive) | 10.5 µM (inactive) | 37.3 µM (inactive) | 26.9 µM (inactive) | 5.36 µM (inactive) | 4.88 µM (inactive) | 35.2 µM (inactive) | 11.9 µM (inactive) | 14.8 µM (inactive) | 26.3 µM (inactive) | 37.9 µM (inactive) | 11.9 µM (inactive) | 18.9 µM (inactive) | – | 27.5 µM (inactive) | 23.3 µM (inactive) | 16 µM (inactive) | 11.8 µM (inactive) | 48.2 µM (inactive) |
| COc1ccc(/C=N/n2cnc3c(c2=O)S/C(=C2/SC(=S)N(c4ccc(C)cc4)C2=O)N3c2ccccc2)cc1 | – | 68.7 µM (inactive) | 40.8 µM (inactive) | > 100 µM (inactive) | > 100 µM (inactive) | – | > 100 µM (inactive) | > 100 µM (inactive) | – | > 100 µM (inactive) | 28.4 µM (inactive) | 70.5 µM (inactive) | > 100 µM (inactive) | 17.7 µM (inactive) | > 100 µM (inactive) | 41.3 µM (inactive) | 58.5 µM (inactive) | 29.9 µM (inactive) | 43.6 µM (inactive) | 29.4 µM (inactive) |
| Oc1ccc(-c2nc3ccc(Br)cc3s2)cc1 | 20.4 µM (inactive) | 21.7 µM (inactive) | 15.1 µM (inactive) | 18.2 µM (inactive) | 14.5 µM (inactive) | 4.85 µM (inactive) | 15.9 µM (inactive) | 32.2 µM (inactive) | 22.1 µM (inactive) | 13 µM (inactive) | 23.3 µM (inactive) | 20.4 µM (inactive) | 15.5 µM (inactive) | – | – | 21.7 µM (inactive) | 17 µM (inactive) | 14.3 µM (inactive) | 3.74 µM (inactive) | 16.3 µM (inactive) |
| CC(C)C[C@H](NC(=O)[C@H](CC(C)C)NC(=O)[C@@H](Cc1c[nH]c2ccccc12)NC(=O)[C@H](Cc1ccccc1)NC(=O)[C@@H](Cc1c[nH]c2ccccc12)NC(=O)[C@H](CCC(N)=O)NC(=O)[C@H](CCC(N)=O)NC(=O)[C@H]1CCCN1C(=O)[C@@H](N)CCCCN)C(N)=O (H-K[dP]QQ[dW]F[dW]LL-NH2) | > 100 µM (inactive) | > 100 µM (inactive) | > 100 µM (inactive) | > 100 µM (inactive) | > 100 µM (inactive) | > 100 µM (inactive) | > 100 µM (inactive) | > 100 µM (inactive) | > 100 µM (inactive) | > 100 µM (inactive) | > 100 µM (inactive) | > 100 µM (inactive) | > 100 µM (inactive) | > 100 µM (inactive) | > 100 µM (inactive) | > 100 µM (inactive) | > 100 µM (inactive) | > 100 µM (inactive) | > 100 µM (inactive) | > 100 µM (inactive) |
